Here are results for 1 compound from US20240166596A1, “SULFAMOYL BENZENE DERIVATIVES AND USES THEREOF” (AphioTx Inc., priority 2021, published 2024).

The test system of assay [1] is C57BL/6J mice. The experiment in a line: Naloxone-precipitated morphine withdrawal, composite withdrawal score. The conditions noted are these: 0.5 mg/kg, 30 minutes before withdrawal. It counts as in vivo.
In assay [2] the target is T1, rPanx1 (Rattus norvegicus Pannexin-1) expressed in 293T cells (Rattus norvegicus, UniProt P60570).
T1 construct: expressed in transfected cells; host or cells: Human embryonic kidney-293T cells (ATCC), transient Lipofectamine 2000 transfection
The experiment in a line: Whole-cell patch-clamp of Panx1 currents in transfected 293T cells. The settings on record: voltage ramp -80 to +80 mV, various doses. Type of assay: cell-based, Homo sapiens. The protocol: To further compare the effects of probenecid, Compounds 1 and 5 on Pannexin-1 channels […] Panx-1 was expressed in embryonic kidney-293T cells (293T) and channel activity was assessed at various doses of each compound.
Rattus norvegicus Pannexin-1 (rPanx1) complementary DNA (cDNA) was cloned between BamHI and SalI sites in a pRK5 expression vector (pRK5-rPanx1). Enhanced green fluorescent protein (EGFP) plasmid (pEGFP-C1) was commercially purchased (addgene).
Human embryonic kidney-293T cells (293T) were purchased from ATCC and routinely maintained in the laboratory. Adherent 293T cells were grown in Dulbecco's modified Eagle's medium (Thermo Fisher) supplemented with 10% fetal bovine serum (Thermo Fisher) and 1% penicillin-streptomycin (10,000 U/mL; Thermo Fisher) at 37° C. in a 5% CO2 humidified growth incubator. 293T cells between the passages 6-20 were used for experiments. For patch-clamp recordings, 293T cells reaching 40-60% confluency on 35 mm culture plates were transiently transfected using Lipofectamine 2000 (Thermo Fisher) 36-48 hours before experiments, using the manufacturer's protocol. 293T cells were transfected with 2.5 μg pRK5-rPanx1 and 0.5 μg pEGFP-C1 cDNAs at a mixed ratio of 5:1 to identify positively transfected cells.
On the day of experiments, transiently transfected 293T cells overexpressing rPanx1 and EGFP cDNAs were seeded onto poly-d-lysine coated glass coverslips at least 2 hours before recordings. […] Data was acquired using Clampex (v.10) software and an Axon Digidata 1550A digitizer (Axon Instruments) at 10 kHz, with currents analyzed offline in Clampfit software (v.10.7). […]
293T cells were voltage clamped at −60 mV in whole-cell configuration and exposed to a 300 ms voltage ramp (−80 to +80 mV) before stepping back to −60 mV to record rPanx1 voltage-sensitive currents. Baseline currents were first measured in extracellular solution before perfusion of drug compounds in incrementally increasing concentrations. […]
A general note: Patch clamp records ionic current or voltage across a cell membrane.

Assay [3] relates to C57BL/6J mice. The experiment in a line: Naloxone-precipitated morphine withdrawal, composite withdrawal score. Type of assay: in vivo. The conditions noted are these: for Withdrawal behaviors: 60 minutes prior to naloxone. As for the experimental part:
Adult male C57BL/6J (7-9 weeks) mice were used. Mice were housed under 12/12 hour light/dark cycles with ad libitum access to food and water. Mice were randomly allocated to different test groups. All experiments were approved by the University of Calgary Animal Care Committee and are in accordance with the guidelines of the Canadian Council on Animal Care.
Morphine sulfate (MS, PCCA) prepared in 0.9% sterile saline solution was injected i.p. into male C57BLJ6J (20-30g) mice. Mice received ascending doses of morphine (i.p.) at 8 hours intervals: day 1, 10mg/kg; day 2, 20 mg/kg; day 3, 30 mg/kg; day 4, 40mg/kg. On day 5, mice received a morning injection of morphine (50 mg/kg). A subset of mice received probenecid (15, 25, and 50 mg/kg i.p., Invitrogen) or Compound 1 (0.1, 0.5 and 1 mg/kg) 1 hour following morphine. Mice then received i.p. naloxone (2 mg/kg, naloxone hydrochloride dihydrate, Sigma) 2 hours following morphine to rapidly induce opioid withdrawal. Control mice received equivalent volumes of 0.9% saline or appropriate vehicle solution (0.1% DMSO in saline) and were challenged with naloxone on day 5. Withdrawal behaviors were then scored for 30 minutes post naloxone injection. Behaviors were scored for occurrence and then scaled for severity at 5-minute intervals. Behaviors that were assigned a standardized score between 0-3 depending on severity were jumping, headshakes, wet-dog shakes, chewing/licking, and teeth chattering. Behaviors that were scored 1 point for presence during a 5-minute interval include piloerection and tremors/twitching. The mice were then weighed following the 30 minutes, and the weight difference was assigned a standardized score dependent on the weight change between 0-3 as well. The scaled and present/absent signs were compiled over the 30 minutes to produce a composite withdrawal score.
All data are presented as the mean±standard error mean (s.e.m), and each circle represents an individual animal or experiment. Tests of statistical difference were performed with GraphPad Prism 6 using either an ordinary one-way ANOVA with posthoc Dunnet test, or a two-way ANOVA with post hoc Sidak test. Sample sizes are consistent with those reported in similar studies and provide sufficient power to detect changes with the appropriate statistical analysis. For all experiments, a criterion a level was set at 0.05.

T1 sequence (P60570 whole entry): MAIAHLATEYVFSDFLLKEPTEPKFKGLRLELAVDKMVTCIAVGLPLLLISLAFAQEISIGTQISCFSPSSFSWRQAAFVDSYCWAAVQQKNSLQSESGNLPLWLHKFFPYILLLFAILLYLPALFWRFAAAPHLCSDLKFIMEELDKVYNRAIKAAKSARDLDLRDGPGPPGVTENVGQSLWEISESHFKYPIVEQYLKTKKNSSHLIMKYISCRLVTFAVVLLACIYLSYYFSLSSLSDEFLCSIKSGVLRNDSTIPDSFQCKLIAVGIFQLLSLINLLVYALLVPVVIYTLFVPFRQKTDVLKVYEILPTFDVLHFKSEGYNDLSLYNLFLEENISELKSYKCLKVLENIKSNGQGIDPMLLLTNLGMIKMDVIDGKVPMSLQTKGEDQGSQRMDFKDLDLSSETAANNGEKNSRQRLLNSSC

Regarding `CCCN(CCC)S(=O)(=O)c1ccc(C(O)(C(F)(F)F)C(F)(F)F)cc1` [Compound 1, 4-(1,1,1,3,3,3-hexafluoro-2-hydroxypropan-2-yl)-N,N-dipropylbenzenesulfonamide], the Withdrawal behaviors entry with C57BL/6J mice [1] is listed as “not effective”; in the assay on C57BL/6J mice [3] (0.1 mg/kg) it was “significantly attenuated”; with C57BL/6J mice [3] (0.5 mg/kg), “significantly attenuated”; in the assay on C57BL/6J mice [3] (1 mg/kg) it was “significantly attenuated”. Further, in assay [2], the “Panx1 inhibitory potency relative to Probenecid (patch-clamp)” value is given as “more potent”. Besides, in the assay with C57BL/6J mice [3] (0.1-1 mg/kg vs probenecid 50 mg/kg), the “Effective dose, fold lower than probenecid” value was 50-500 fold.
